This is an account of results in patent US20200088732A1, “METHODS FOR THE DIAGNOSIS AND TREATMENT OF PANCREATIC DUCTAL ADENOCARCINOMA” (INSERM (Institut National de la Santé et de la Recherche …, priority 2017, published 2020).

Molecules are shown by their SMILES.

Common to all, as to format: cell-based
Assay [1] deals with Mouse pancreatic cancer cell, Pk4A. The experiment in a line: Cell invasion assay (matrigel Boyden chambers), PK4A cells. To be noted: PAP/REG3β 500 ng/mL, AG490 30 μmol/L, 24 hrs, P<0.05, FIG. 2D. Here is the method: Cancer cell invasion was studied using PKA4 cells on Boyden chambers according to manufacturer's protocol (354480, Corning Lifesciences, Corning, N.Y., USA). Mouse recombinant PAP/REG3β was used at 500 ng/mL and AG490 at 30 μmol/L. Culture inserts were pre-coated with matrigel matrix then seeded with PK4A (100 0000 cells per insert) and placed into wells containing the medium. Cell counting was measured after 24 hrs of incubation. After cleaning and briefly staining inserts with coomassie blue, invasion was assessed by counting (Image J software) the number of colored cells in 8-16 high-power fields (magnification ×10).

The subject of assay [2] is Human pancreatic cancer cell, Panc-1. The experiment in a line: Cell migration assay (Boyden chambers), Panc-1 cells. The following applies: 100 ng/mL PAP/REG3A recombinant protein, AG490 at 30 μM, P<0.05, FIG. 2C. Here is the method:
(§1) Cancer cell migration was studied using PKA4 and PANC-1 cell lines under different media (medium with or without recombinant PAP/REG3A or conditioned medium from acinar cells) on Boyden chambers. Culture inserts from BD Biosciences (353097, Le pont le Claix, FR), with a porous membrane of […], were coated with a mix made of gelatin 0.1% from Sigma-Aldrich (G1890, St Quentin, FR) and fibronectin 10 μg/mL from Sigma-Aldrich (F0895, St Quentin, FR) then seeded with PK4A or PANC-1 cells (100 0000 or 75 000 cells respectively per insert) and placed into wells containing culture media (with or without recombinant PAP/REG3A). PAP/REG3A or […] were used from 0 to 500 ng/mL. Migration was performed for 4 hrs for medium with or without recombinant PAP/REG3A or β and for 1 hr 45 min for conditioned medium from acinar cells. After cleaning and briefly staining inserts with coomassie blue, migration was assessed by counting (Image J software) the number of colored cells in 8-16 high-power fields (magnification ×10).

Assay [3] concerns Mouse pancreatic cancer cell, Pk4A. The experiment in a line: Cell migration assay (Boyden chambers), Pk4A cells. The following applies: versus ACm/PAP+ media, AG490 30 μM, 1 hr 45 min, P<0.05, FIG. 2E. The procedure: as §1
Another assay relates to Pk4A cells. The experiment in a line: Ex vivo peri-neural invasion assay (mouse sciatic nerve co-cultured with cancer cells). The procedure:
The day before the experiment 125,000 PK4A cells are seeded in 24 well plates in DMEM supplemented with 10% FBS and 1% antibiotic/antimycotic. 24 hrs after inhibitors (AG490 at 30 μmol/L or SC144 at 2 μmol/L) were added for 2 h. […] A mouse sciatic nerve section (5 mm) is placed in every well and cultured for 48 hrs then nerve sections are fixed 24 hrs in 4% formaldehyde and embedded in paraffin for immunohistochemistry study. Nerve sections from each condition are cut to make 4 μm sections from 2 different depths spaced by 50 μm and fixed on slides. Slides are processed for cytokeratin immunostaining by IHC as mentioned above. Cells stained with cytokeratine inside or in contact with nerve are recorded (Image J software).
Using human PDA slides, we observed that PAP/REG3A staining is associated with nerve density (Data not shown). Indeed, nerve fibers are mainly present in tissues areas where PAP/REG3A is strongly expressed. […] To further deepen the suspected role of PAP/REG3A as favoring PNI, we designed a specific ex-vivo experiment. Such experiment was done using mouse sciatic nerve fibers that we incubated with Pk4A cells+/−PAP/REG3β mouse recombinant protein (Data not shown). […]

With `N#C/C(=C\c1ccc(O)c(O)c1)C(=O)NCc1ccccc1` [AG490], in assay [1], the “effect of inhibitor on PAP/REG3β-induced invasion” value is “inhibited”. The “effect of inhibitor on PAP/REG3A-induced Panc-1 migration” value in assay [2] is reported as “impair PAP/REG3A effect on Panc-1 migration”. In addition, in assay [3], the “change of the ACm/PAP+-induced increase of Pk4A migration” value is “significantly reduced”. For the same compound, in the assay on Pk4A cells (PAP/REG3β 500 ng/mL, AG490 30 μmol/L, FIG. 3A), the “effect of inhibitor on PAP/REG3β-induced nerve fibers invasion by pancreatic cancer cells” value is given as “impairs significantly”.
On to `O=C(NNc1nc2cc(F)ccc2n2cccc12)c1cnccn1` [SC144], for which the “PNI relative to acinar cell media containing PAP/REG3β (ACm/PAP+)” value with Pk4A cells (Pk4A with nerve fibers and acinar cell media, SC144 2 μmol/L, P<0.05, FIG. 3B) is “drastically reduced”.
